Source: patent US20210349099A1, “CANCER BIOMARKERS AND METHODS OF USE THEREOF” (X4 Pharmaceuticals, Inc., priority 2017, published 2021)

Assays:
Solubility of X4P-001 = assay type: physicochemical
in vivo = experiment: in vivo
Method: In certain embodiments, the dosage composition may be provided twice a day in divided dosage, approximately 12 hours apart. In other embodiments, the dosage composition may be provided once daily. […] Dosage for oral administration may be from about 100 mg to about 1200 mg once or twice per day.

melanoma tumor interface = experiment: Multiplex IHC and HALO count of CD8+ cells at the tumor interface; assay type: in vivo, human
Method: CD8-labeled cells within […] of the inside or outside of the tumor boundary with normal tissue were counted. The number of CD8^+ cells/mm^2 was plotted against distance from the boundary in […] bands.

[1] = tested on: solid tumors, e.g. advanced or metastatic melanoma; experiment: Biomarker findings in tumors; assay type: in vivo
Source text: Granzyme B is associated with cell death/apoptosis mediated by cytotoxic T lymphocytes (CTLs), natural killer (NK) cells, and cytotoxic T cells. Accordingly, in some embodiments, the biomarker is an observed increase in granzyme B expression in a tumor relative to a control. In some embodiments, the cancer is a solid tumor such as advanced or metastatic melanoma. […] Accordingly, in some embodiments, the biomarker is an observed increase in CD8^+ T cells and/or CD4^+ T cells in a tumor relative to a control. In other embodiments, the biomarker is an increase in the ratio of CD8^+ T cells to Treg cells. In some embodiments, the increase is observed by immunohistochemistry or expression levels of one or both of CD8A and CD8B. In some embodiments, an increase in CD8^+ T cells and/or CD4^+ T cells or CD8^+ T cells/Treg ratio in a tumor sample from a patient who has undergone treatment with […]-001 or X4-136 correlates with an increased likelihood that the patient will benefit from continued treatment with […]-001 alone or in combination with an immunotherapeutic agent, e.g., a checkpoint inhibitor such as a PD-1 antagonist. In some embodiments, the PD-1 antagonist is selected from nivolumab and pembrolizumab, or a biosimilar or variant of such PD-1 antagonists. In some embodiments, the checkpoint inhibitor is nivolumab. In some embodiments, the checkpoint inhibitor is a nivolumab biosimilar or variant. In some embodiments, the checkpoint inhibitor is pembrolizumab. In some embodiments, the checkpoint inhibitor is a pembrolizumab biosimilar or variant. In some embodiments, the tumor is a solid tumor such as advanced or metastatic melanoma. […] In some embodiments, the biomarker is IDO1. In some embodiments, the biomarker is CXCL10. In some embodiments, the biomarker is CXCL9. In some embodiments, the biomarker is HLA-DRA. In some embodiments, the biomarker is STAT1. In some embodiments, the biomarker is IFN-γ. In some embodiments, the biomarker is two or more of IDOL, CXCL10, CXCL9, HLA-DRA, STAT1 and IFN-γ. In some embodiments, the biomarker is three or more of IDO1, CXCL10, CXCL9, HLA-DRA, STAT1 and IFN-γ. In some embodiments, the biomarker is four or more of IDOL, CXCL10, CXCL9, HLA-DRA, STAT1 and IFN-γ. In some embodiments, the biomarker is five or more of IDOL, CXCL10, CXCL9, HLA-DRA, STAT1 and IFN-γ. In some embodiments, the biomarker is all of IDOL, CXCL10, CXCL9, HLA-DRA, STAT1 and IFN-γ. In some embodiments, the biomarker is an increase of all of IDO1, CXCL10, CXCL9, HLA-DRA, STAT1 and IFN-γ. In some embodiments, an increase in one, two, three, four, five, or all of IDOL, CXCL10, CXCL9, HLA-DRA, STAT1 and IFN-γ in a tumor sample from a patient who has undergone treatment with […]-001 correlates with an increased likelihood that the patient will benefit from continued treatment with […]-001 alone or in combination with an immunotherapeutic agent, e.g., a checkpoint inhibitor such as a PD-1 antagonist. In some embodiments, the PD-1 antagonist is selected from nivolumab and pembrolizumab, or a biosimilar or variant of such PD-1 antagonists. In some embodiments, the checkpoint inhibitor is nivolumab. In some embodiments, the checkpoint inhibitor is a nivolumab biosimilar or variant. In some embodiments, the checkpoint inhibitor is pembrolizumab. In some embodiments, the checkpoint inhibitor is a pembrolizumab biosimilar or variant. In some embodiments, the tumor is a solid tumor such as advanced or metastatic melanoma. In some embodiments, the biomarker or the use thereof is one of those described in Ayers et al., Journal of Clinical Investigation 2017, 127(8), 2930-2940 [29] (“Ayers et al. (2017)”) or WO 2016/094377, each of which is hereby incorporated by reference. […] Accordingly, in some embodiments, the biomarker is maintenance or decrease of Treg levels in a tumor relative to a control. In some embodiments, the biomarker is the level of FoxP3 expression, which serves as a means to determine the Treg level. […]

[2] = tested on: melanoma, renal cell carcinoma, and ovarian cancer; details: murine models; cited from earlier work
[3] = solid tumors, e.g. advanced or metastatic melanoma

solubility (Solubility of X4P-001; aqueous buffer, pH range 3.0 to 8.0 (freely soluble)): > 100 mg/mL
solubility in water (Solubility of X4P-001; water): only slightly soluble
terminal half-life (in vivo): approximately 14.5 hrs
half-life (in vivo; terminal half-life): 12 to 24 h
SMILES: NCCCCN(Cc1nc2ccccc2[nH]1)[C@H]1CCCc2cccnc21 [X4P-001]
CD8 Avg. Density (melanoma tumor interface; Week 4, Day 1 380.0449): 1550.5403 cells/mm^2
CD8 Within Interface Area (melanoma tumor interface; Week 4, Day 1 5233): 7557
CD8 Count (melanoma tumor interface; Week 4, Day 1 8924): 25894
total density of CD8+ cells within the boundary area compared with baseline (melanoma tumor interface; after 3 weeks of monotherapy, within 100 μM of tumor boundary): increased four-fold
CTL signature gene expression in tumor samples or the tumor microenvironment ([1]; in vivo): increase
IFN-γ gene signature (panel of IFN-γ related genes) ([1]; in vivo): increase
PD-L1 expression in tumor samples and the tumor microenvironment ([1]; in vivo): increase
granzyme B (GZMB) expression in cancers [1, 3]: increases
levels of Treg cells [1, 3]: without significantly increasing
levels of macrophages in the tumor [1, 3]: without significantly modulating
observed numbers of CD8+ T cells and/or CD4+ T cells in cancers [1, 3]: increases
levels of the VISTA panel of biomarkers ([1]; tumor samples and the tumor microenvironment): modulate
anti-tumor activity [2]: significant anti-tumor activity, including decreased metastasis and increased overall survival
